“Also recorded” adds a separate entry of the source.

For one experiment, the system named is P388 leukemia. The experiment in a line: P388 leukemia in vivo (increase in lifespan of mice, i.p. tumour). Conditions: for active (P388): P388, at the stated dose; for ILSmax (percentage increase in lifespan), marked * / ILSmax (percentage increase in lifespan): P388, at OD on days 1, 5, 9, >20% statistically significant; for ILSmax (percentage increase in lifespan): values without asterisk, controls 11 days.

Experiment [1] can be described thus: Potency and antitumour activity in in vivo test systems (general statements).
A further experiment relates to Lewis lung carcinoma. The experiment in a line: Lewis lung carcinoma in vivo (increase in lifespan of mice, i.v. tumour). To be noted: for ILS (percentage increase in lifespan) / active (Lewis lung) / ILS (percentage increase in lifespan), marked *: Lewis lung; for ILS (percentage increase in lifespan) / ILS (percentage increase in lifespan), marked *: at OD on days 1, 5, 9, >40% statistically significant; for ILS (percentage increase in lifespan): values without asterisk, controls 17 days; for active (Lewis lung): at the stated dose.

The test system of a further experiment is Aerobacter aerogenes. The experiment in a line: Antibacterial activity.
Another experiment relates to Alcaligenes viscolactis. Kind of experiment: Antibacterial activity.
A further experiment concerns Escherichia coli. The experiment in a line: Antibacterial activity.
The next experiment relates to Bacillus subtilis. The experiment in a line: Antibacterial activity.
In the next experiment the test system is Sarcina lutea. The experiment in a line: Antibacterial activity.
Experiment [2] has as its system Micrococcus lysodeikticus. The experiment in a line: Antibacterial activity.
Another experiment concerns Neisseria catarrhalis. The experiment in a line: Antibacterial activity.
For the next experiment, the system named is Staphylococcus aureus. Kind of experiment: Antibacterial activity.
Another experiment relates to Xanthomonas phaseoli. The experiment in a line: Antibacterial activity.
The test system of a further experiment is Streptococcus faecalis. Kind of experiment: Antibacterial activity.
The conditions of experiment [3]: 3'-substituted AMSA analogues; earlier publications; cited from earlier work.
Another experiment has as its system mouse L1210 leukemia. Conditions: mouse L1210 leukemia model; Atwell, Cain and Seelye 1972; cited from earlier work.

On to `CNc1cc(NS(C)(=O)=O)ccc1Nc1c2ccccc2nc2ccccc12` [Compound 1], for which the “active (P388)” value with P388 leukemia is “Y”. In addition, the “potency and antitumour activity (in words)” value in experiment [1] is “increased potency and antitumour activity compared to the unsubstituted AMSA and the 3'-methoxy derivative m-AMSA (amsacrine)”. Also, in the experiment on Lewis lung carcinoma, the “ILS (percentage increase in lifespan)” value was determined as 85% and the “active (Lewis lung)” value is reported as “Y”.

Take `CNc1cc(NS(C)(=O)=O)ccc1Nc1c2ccccc2nc2c(C)cccc12` [Compound 12]: the “ILSmax (percentage increase in lifespan), marked *” value in the experiment on P388 leukemia was 157%. The “active (P388)” value in the experiment on P388 leukemia is “Y”. Besides, the antibacterial activity entry (in the experiment on Aerobacter aerogenes; with Alcaligenes viscolactis; in the experiment on Escherichia coli; in the experiment on Bacillus subtilis; in the experiment with Sarcina lutea; in experiment [2]) was “active” in each case. Also, the antibacterial activity result in the experiment on Neisseria catarrhalis, with Staphylococcus aureus, with Xanthomonas phaseoli and in the experiment on Streptococcus faecalis was “active” in each case. The “ILS (percentage increase in lifespan), marked *” value with Lewis lung carcinoma is on record as 159%. Moreover, the “active (Lewis lung)” value in the experiment on Lewis lung carcinoma is reported as “Y”.

For `COc1cc(NS(C)(=O)=O)ccc1Nc1c2ccccc2nc2ccccc12` [m-AMSA, 4'-(9-acridinylamino)methanesulphon-m-anisidide, reference compound], in the experiment with P388 leukemia, the “ILSmax (percentage increase in lifespan)” value amounted to 78% and the “active (P388)” value is “Y”. Besides, in [3], the “antitumour activity / dose potency (in words)” value is “increased dose potency”. Also, in the experiment with Lewis lung carcinoma, the “ILS (percentage increase in lifespan)” value turned out to be 38% and the “active (Lewis lung)” value was “Y/N”. Besides, the “Lewis lung activity (in words)” value in the experiment on Lewis lung carcinoma (tumour implanted intravenously, ILS of 40% required for statistical significance) is “minimal activity; also recorded: strictly inactive”.

For `CNc1cc(NS(C)(=O)=O)ccc1Nc1c2ccccc2nc2c(OC)cccc12` [Compound 13], in the experiment with P388 leukemia, the “ILSmax (percentage increase in lifespan), marked *” value came to 118% and the “active (P388)” value was “Y”. In addition, in the experiment on Lewis lung carcinoma, the “ILS (percentage increase in lifespan)” value came out at 153% and the “active (Lewis lung)” value is given as “Y”.

For the compound `CS(=O)(=O)Nc1ccc(Nc2c3ccccc3nc3ccccc23)cc1` [AMSA, 4'-(9-acridinylamino) methanesulphonanilide], the antitumour activity result in the experiment on mouse L1210 leukemia is “good antitumour activity”.

As to `CNc1cc(NC(=O)OC)ccc1Nc1c2ccccc2nc2ccccc12` [Compound 50], in the experiment with P388 leukemia, the “ILSmax (percentage increase in lifespan)” value is listed as 132% and the “active (P388)” value is listed as “Y”. In addition, in the experiment on Lewis lung carcinoma, the “ILS (percentage increase in lifespan), marked *” value turned out to be 122% and the “active (Lewis lung)” value is “Y”.

Consider `CNc1cc(NS(C)(=O)=O)ccc1Nc1c2ccc(F)cc2nc2c(C)cccc12` [Compound 18], for which, in the experiment on P388 leukemia, the “ILSmax (percentage increase in lifespan), marked *” value was 152% and the “active (P388)” value is recorded as “Y”. Moreover, in the experiment with Lewis lung carcinoma, the “ILS (percentage increase in lifespan), marked *” value is 143% and the “active (Lewis lung)” value is recorded as “Y”.

The values above are taken from US4795826A, “Ortho-phenylenediamine compounds” (priority 1986, dated 1989).
